Results: ChEMBL document CHEMBL1129564, “Tyrosine kinase inhibitors. 10. Isomeric 4-[(3-bromophenyl)amino]pyrido[d]-pyrimidines are potent ATP binding site inhibitors of the tyrosine kinase function of the epidermal growth factor receptor” (J Med Chem, 1996)
pIC50: −log10 of the molar value.

These molecules were tested against T1, Epidermal growth factor receptor (Homo sapiens, UniProt P00533) (assay: Inhibition of Epidermal growth factor receptor autophosphorylation in A431 human epidermoid carcinoma cells).
T1 sequence (P00533 whole entry): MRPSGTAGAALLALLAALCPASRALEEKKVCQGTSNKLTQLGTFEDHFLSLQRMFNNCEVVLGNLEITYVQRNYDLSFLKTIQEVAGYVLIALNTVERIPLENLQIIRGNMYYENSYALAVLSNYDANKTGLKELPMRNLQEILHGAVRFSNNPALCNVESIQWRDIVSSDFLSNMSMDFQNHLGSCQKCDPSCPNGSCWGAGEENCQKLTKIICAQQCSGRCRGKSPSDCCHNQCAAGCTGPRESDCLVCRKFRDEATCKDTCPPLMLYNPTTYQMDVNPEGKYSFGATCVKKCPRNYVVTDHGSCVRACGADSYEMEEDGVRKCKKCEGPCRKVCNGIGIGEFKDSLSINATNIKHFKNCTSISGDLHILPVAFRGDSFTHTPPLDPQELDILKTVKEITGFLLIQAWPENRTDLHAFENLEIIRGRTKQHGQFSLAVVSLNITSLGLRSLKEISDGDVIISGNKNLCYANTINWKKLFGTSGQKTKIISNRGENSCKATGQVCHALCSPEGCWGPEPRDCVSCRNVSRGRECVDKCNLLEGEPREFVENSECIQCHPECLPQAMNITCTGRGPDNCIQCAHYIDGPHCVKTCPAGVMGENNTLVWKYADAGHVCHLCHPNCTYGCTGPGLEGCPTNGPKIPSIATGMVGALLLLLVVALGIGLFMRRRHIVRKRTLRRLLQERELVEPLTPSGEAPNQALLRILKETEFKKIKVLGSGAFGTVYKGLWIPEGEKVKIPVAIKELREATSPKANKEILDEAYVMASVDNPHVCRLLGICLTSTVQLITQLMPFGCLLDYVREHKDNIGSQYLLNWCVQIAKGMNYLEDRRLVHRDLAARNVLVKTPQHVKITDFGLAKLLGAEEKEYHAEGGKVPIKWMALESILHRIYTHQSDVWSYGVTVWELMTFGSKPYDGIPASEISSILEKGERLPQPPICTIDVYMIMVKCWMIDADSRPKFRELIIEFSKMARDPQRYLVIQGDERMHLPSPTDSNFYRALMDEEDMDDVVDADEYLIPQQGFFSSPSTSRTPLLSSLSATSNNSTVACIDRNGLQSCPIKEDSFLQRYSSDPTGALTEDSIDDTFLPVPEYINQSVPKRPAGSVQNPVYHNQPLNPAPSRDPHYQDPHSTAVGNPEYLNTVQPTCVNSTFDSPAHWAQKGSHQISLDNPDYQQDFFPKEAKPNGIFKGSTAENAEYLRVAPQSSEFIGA

pIC50 | SMILES
7.80 | CNc1cc2ncnc(Nc3cccc(Br)c3)c2cn1
5.68 | Nc1cc2ncnc(NCc3ccccc3)c2cn1
5.64 | CN(C)c1ccc2c(Nc3cccc(Br)c3)ncnc2n1
7.85 | CN(C)c1cc2ncnc(Nc3cccc(Br)c3)c2cn1
7.82 | CNc1cc2c(Nc3cccc(Br)c3)ncnc2cn1
7.80 | Nc1cc2c(Nc3cccc(Br)c3)ncnc2cn1

What follows are molecules tested against T1, Epidermal growth factor receptor (assay: biochemical).
Description: Inhibitory potency against isolated epidermal growth factor receptor (EGFR) from human A431 carcinoma cells

pIC50 | SMILES
8.15 | CNc1ccc2ncncc2c1
6.16 | Brc1cccc(Nc2ncnc3ncccc23)c1
7.57 | c1ccc2ncncc2c1 [QUINAZOLINE]
9.10 | Nc1ccc2ncncc2c1
7.52 | COc1ccc2ncncc2c1
6.49 | CN(C)c1ccc2c(Nc3cccc(Br)c3)ncnc2n1
7.29 | Brc1cccc(Nc2ncnc3cnccc23)c1
6.16 | Fc1ccc2c(Nc3cccc(Br)c3)ncnc2n1
7.74 | Clc1ccc2ncnc(Nc3cccc(Br)c3)c2n1
5.69 | c1ccc(CNc2ncnc3cnccc23)cc1
< 5.00 | c1ccc(CNc2ncnc3ncccc23)cc1
6.22 | c1ccc(CNc2ncnc3cccnc23)cc1
5.84 | c1ccc(CNc2ncnc3ccncc23)cc1
8.37 | COc1ccc2ncnc(Nc3cccc(Br)c3)c2n1
6.92 | CN(C)c1ccc2ncncc2c1
8.40 | CNc1ccc2cncnc2c1
7.47 | Brc1cccc(Nc2ncnc3cccnc23)c1
7.46 | Brc1cccc(Nc2ncnc3ccncc23)c1
9.89 | Nc1cc2c(Nc3cccc(Br)c3)ncnc2cn1
8.00 | COc1ccc2cncnc2c1
8.05 | CNc1cc2c(Nc3ccccc3)ncnc2cn1
7.36 | Fc1ccc2ncnc(Nc3cccc(Br)c3)c2n1
7.96 | CN(C)c1ccc2cncnc2c1

SMILES | pIC50
CNC1=CC2N=CN(C)/C(=N\c3cccc(Br)c3)C2C=N1 (configuration not stated) | 8.51
COc1ccc(CNc2cc3c(Nc4cccc(Br)c4)ncnc3cn2)cc1 | 8.64
Nc1ccc2cncnc2c1 | 10.00
